Source: patent US20040175568A1, “Fullerodendrimer-comprising film” (priority 2003, published 2004)

Assay: Oxidation and reduction potential of fullerodendrimer
Format: physicochemical

Question: With c12c3c4c5c1c1c6c7c2c2c8c3c3c9c4c4c%10c5c5c1c1c6c6c%11c7c2c2c7c8c3c3c8c9c4c4c9c%10c5c5c1c1c6c6c%11c2c2c7c3c3c8c4c4c9c5c1c1c6c2c3c41 [Example C60, C60] as the compound, how does the first oxidation potential read?
Answer: The first oxidation potential was “+1,120 mV”.

Question: And the first reduction potential?
Answer: The first reduction potential was −1,120 mV.
